According to publication PMC3828397, “Characterization of PfTrxR inhibitors using antimalarial assays and in silico techniques” (Chemistry Central Journal, 2013):
Like-named read-outs stand apart in the source and are kept apart here.

How the values were obtained:
hTrxR = conditions: read-out: Exptl. IC50, hTrxR; cited from earlier work
Human erythrocytes = test: ROS assay in DCFDA loaded erythrocytes; assay type: cell-based
PfTrxR = conditions: read-out: Pf TrxR IC50; cited from earlier work
3T3 cells = test: Cytotoxicity assay (AlamarBlue); assay type: cell-based
[1] = tested on: P. falciparum CQ-sensitive (D6) and CQ-resistant (W2) strains; test: In vitro antimalarial assay, statements covering both strains; assay type: cell-based, Plasmodium falciparum; conditions: for IC50: Plasmodium falciparum, strain not given, read-out: antimalarial activity IC50 (abstract)
[2] = tested on: P. falciparum chloroquine sensitive (D6, Sierra Leone) strain; test: In vitro antimalarial assay (SYBR green), D6 strain; assay type: cell-based, Plasmodium falciparum
[3] = tested on: P. falciparum chloroquine resistant (W2, IndoChina) strain; test: In vitro antimalarial assay (SYBR green), W2 strain; assay type: cell-based, Plasmodium falciparum
[4] = Plasmodium falciparum, W2, W2 clone, mean ± S.D. of triplicate observations, read-out: Pf (W2) CQ resistance IC50
[5] = test compounds 50 μM, DCFDA fluorescence monitored for 120 min
[6] = Mus musculus, NIH3T3, 3T3 cells, AlamarBlue, NC: no cytotoxicity up to concentration much higher than the antiplasmodial concentration, read-out: 3T3 IC50
[7] = against the two strains of P. falciparum
[8] = Plasmodium falciparum, D6 clone, mean ± S.D. of triplicate observations, read-out: Pf (D6) CQ sensitive IC50
[9] = Plasmodium falciparum, W2, read-out: Pf (W2) CQ resistance IC50
[10] = Plasmodium falciparum, D6, read-out: Pf (D6) CQ sensitive IC50

| Compound | IC50 (hTrxR) [µM] | intraerythrocytic formation of ROS (oxidative stress) (Human erythrocytes) | IC50 (PfTrxR) [µM] | IC50 (3T3 cells; read-out: 3T3 IC50) [µM] | antimalarial activity in words [1] | IC50 ([2]; read-out: Pf (D6) CQ sensitive IC50) [µM] | IC50 [3, 4] [µM] | IC50 ([3]; W2 clone, mean ± S.D. of triplicate observations, read-out: Pf (W2) CQ resistance IC50) [µM] | intraerythrocytic formation of ROS (oxidative stress) (Human erythrocytes; [5]) | IC50 (3T3 cells; [6]) [µM] | IC50 [1] [µM] | antimalarial activity in words [1, 7] | IC50 [2, 8] [µM] | IC50 [3, 9] [µM] | IC50 (3T3 cells; Mus musculus, NIH3T3, read-out: 3T3 IC50) [µM] | IC50 [2, 10] [µM] |
| --- | --- | --- | --- | --- | --- | --- | --- | --- | --- | --- | --- | --- | --- | --- | --- | --- |
| 4-nitrobenzothiadiazole [4-NBT] | 50 | significant increase | 2 | 80 ± 1.15 | most active | 8.3 ± 2.1 | – | – | – | – | – | – | – | – | – | – |
| O=C1C=CC(=O)c2ccccc21 [1,4-NQ, 1,4-napthoquinone] | – | – | 0.75 | – | – | – | < 20 | 16.7 ± 3.7 | significant increase | 38.5 ± 0.76 | < 20 | most active | 8.9 ± 2.3 | – | – | – |
| CN(C)CCC(=O)c1ccccc1 [3-DAP, 3-dimethylaminopropiophenone] | – | did not cause the production of ROS | 15.4 | – | – | – | – | – | – | – | – | inactive | – | > 100 | > 100 | > 100 |
| CCN(CC)CCCC(C)Nc1ccnc2cc(Cl)ccc12 (centres unmarked) [CQ, chloroquine] | – | – | – | – | – | – | – | – | – | – | – | – | – | 0.44 ± 0.045 | – | 0.055 ± 0.006 |
| CC1=CC(=O)c2ccccc2C1=O [MD, menadione] | – | – | 1.6 | – | – | – | 28.3 ± 5.6 | – | significant increase | 70.5 ± 3.69 | < 20 | moderately active | 18.5 ± 1.9 | – | – | – |
